From US6602824B1, “Herbicidal composition and a method of using a naturally-occurring organic compound as a herbicide” (Greener Pastures Development Corp., priority 1999, dated 2003)
Structures can show the parent of a compound that is named as a salt.

Assays:
[1] = test system: rats; test: LD50, single oral dose administered to rats; conditions: orally administered to rats; versus sodium chloride
[2] = test system: rats; conditions: orally administered to rats; cited from earlier work

What does the source list for C[N+](C)(C)CC(=O)[O-] [glycine betaine, 1-carboxy-N,N,N-trimethylmethanaminium inner salt]?
toxicity relative to ordinary table salt, as reflected by the oral rat LD50 [1]: more than three times less toxic; LD50 [2]: about 11,204 mg per kilogram of rat body we
